# Laboratory results: article PMC12921516 (ACS Bio & Med Chem Au, 2025)
# Tests used:
# [1] = molecular target: T1, hPTP1B1–400 (Homo sapiens, UniProt P18031); assay: PTP1B inhibition, pNPP hydrolysis, long form; assay type: biochemical; conditions: pNPP substrate, 15 min 37 °C, pH 6.8; ± S.D
# T1 construct: h PTP1B 1–400 IC 50 (μM ± S.D); made in house
# T1 sequence (P18031 1-400): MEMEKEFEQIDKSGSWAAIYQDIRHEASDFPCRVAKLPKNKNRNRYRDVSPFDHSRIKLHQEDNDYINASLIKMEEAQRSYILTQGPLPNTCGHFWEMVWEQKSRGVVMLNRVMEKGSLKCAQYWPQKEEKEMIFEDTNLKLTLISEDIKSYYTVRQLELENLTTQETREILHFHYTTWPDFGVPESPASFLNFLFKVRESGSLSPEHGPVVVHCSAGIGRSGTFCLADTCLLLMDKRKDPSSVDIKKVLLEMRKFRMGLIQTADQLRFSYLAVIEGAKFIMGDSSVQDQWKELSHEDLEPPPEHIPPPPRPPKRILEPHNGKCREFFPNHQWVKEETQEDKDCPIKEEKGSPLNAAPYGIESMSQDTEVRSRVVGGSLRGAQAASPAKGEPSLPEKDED
# Procedure: The inhibitory activity of PTP1B was assessed using the long form of the PTP1B enzyme (hPTP1B1–400). This enzyme comprises a highly conserved N-terminal catalytic domain, known as the PTP domain (PTP1B1–300), in addition to an intrinsically disordered regulatory domain (PTP1B301–400).
# The IC50 values obtained from these tests are detailed in Table .
# Aliquots of 0–10 μL of the test compounds (triplicate) were taken and incubated for 15 min at 37 °C with 85 μL of Tris buffer solution (50 mM, pH 6.8) containing PTP1B enzyme and 5 μL of p-nitrophenyl phosphate substrate (pNPP, 10 mM). The absorbance of the hydrolysis product, p-nitrophenol (pNP), was measured at 405 nm using a 96-microplate absorbance reader (Accuris SmartReader 96). The inhibitory activity was determined according to eq . %enzyme=(A405b/A405c)×100 1 Where: % enzyme is the percentage of inhibition for PTP1B or TCPTP
# The IC50 was calculated using regression analysis, eq : %inhibition=A100/1+(I/IC50)^s 2 Where: A100: Maximum inhibition
# [2] = system: STZ-induced diabetic rats; conditions: earlier study of the group; cited from earlier work
# [3] = system: STZ-induced diabetic CD-1 mice; assay: Insulin tolerance test (ITT); assay type: in vivo; conditions: 45 mg/kg, insulin 0.75 IU after 30 min
# Procedure: The studies were carried out on compounds 4b, 4g, and 5g using both normoglycemic CD1 mice and a mouse model of noninsulin-dependent diabetes mellitus (NIDDM). An oral glucose tolerance test (OGTT) was conducted on the normoglycemic mice to evaluate the hypoglycemic activity of the compounds, while an insulin tolerance test (ITT) was performed on hyperglycemic CD1 mice to assess the compounds' capacity to enhance insulin sensitivity in streptozotocin-induced diabetic mice. Pioglitazone and GA were included as positive controls. […] Healthy six-week-old male CD-1 mice, weighing between 30 and 40 g, were maintained at a temperature of 25 ± 2 °C, under a 12-h light/dark cycle and 45-65% humidity throughout the experimental period. The mice were provided with a rodent pelleted diet (Harlan Laboratories, Indianapolis, USA) and had access to water ad libitum. Sixteen hours before the experiment, all mice were fasted but still had free access to water. All animal procedures were conducted in accordance with the Mexican Federal Regulations for Animal Experimentation and Care (SAGARPA, NOM-062-ZOO-1999, Mexico) and received approval from the Institutional Animal Care and Use Committee, following guidelines outlined in the US National Institutes of Health publication (No. 85-23, revised 1985). Streptozotocin (STZ) was dissolved in citrate buffer (pH 4.5), while nicotinamide was dissolved in a normal physiological saline solution. The noninsulin-dependent diabetes (NIDD) mouse model was induced in overnight-fasted mice through a single intraperitoneal injection of STZ (100 mg/kg). Nicotinamide was administered 15 min prior, at a dose of 20 mg/kg via intraperitoneal injection. […] Roche). […] Animals were categorized into five groups, each consisting of four mice (n = 4). The experimental groups received an oral suspension of compounds 4b, 4g, and 5g, prepared in a 10% Tween 20/water solution, at a dosage of 50 mg/kg body weight. A control group was treated with only the 10% Tween 20 solution. The final group was administered pioglitazone at a dose of 45 mg/kg, which is recognized as a reference drug for insulin sensitization. To evaluate glucose levels, blood samples were collected from the tails of the mice at 0, 30, 60, 90, and 120 min after the administration of the vehicle, test compound, or drug. Blood glucose concentration was measured using a commercial glucometer (Accu-Chek, Performa; Roche) and the enzymatic glucose dehydrogenase method. The percentage variation in glycemia was calculated by comparing the selected postadministration glycemia (G x ) with the initial value (G0) using the following formula: %[…]=[(Gx-G0)/G0]×100 where G0 represents the initial glycemia values and Gx indicates the glycemia values at +30, + 60, + 90, and +120 min, respectively. To evaluate the ability of GA derivatives to enhance insulin sensitivity in STZ-induced diabetic CD-1 mice, compounds 4b, 4g, and 5g were tested. Glycyrrhetinic acid (GA) and Pioglitazone served as positive controls. The GA derivatives and the positive controls were administered to the diabetic animals, followed by the administration of human rapid-acting insulin (0.75 IU) after 30 min. Subsequently, glucose levels were measured every 15 min.
# [4] = system: normoglycemic CD1 mice; assay: Oral glucose tolerance test (OGTT); assay type: in vivo; conditions: 45 mg/kg, glucose 2 g/kg
# Procedure: The studies were carried out on compounds 4b, 4g, and 5g using both normoglycemic CD1 mice and a mouse model of noninsulin-dependent diabetes mellitus (NIDDM). An oral glucose tolerance test (OGTT) was conducted on the normoglycemic mice to evaluate the hypoglycemic activity of the compounds, while an insulin tolerance test (ITT) was performed on hyperglycemic CD1 mice to assess the compounds’ capacity to enhance insulin sensitivity in streptozotocin-induced diabetic mice. Pioglitazone and GA were included as positive controls.
# Healthy six-week-old male CD-1 mice, weighing between 30 and 40 g, were maintained at a temperature of 25 ± 2 °C, under a 12-h light/dark cycle and 45–65% humidity throughout the experimental period. The mice were provided with a rodent pelleted diet (Harlan Laboratories, Indianapolis, USA) and had access to water ad libitum. Sixteen hours before the experiment, all mice were fasted but still had free access to water. All animal procedures were conducted in accordance with the Mexican Federal Regulations for Animal Experimentation and Care (SAGARPA, NOM-062-ZOO-1999, Mexico) and received approval from the Institutional Animal Care and Use Committee, following guidelines outlined in the US National Institutes of Health publication (No. 85–23, revised 1985).
# Animals were categorized into five groups, each consisting of four mice (n = 4). The experimental groups received an oral suspension of compounds 4b, 4g, and 5g, prepared in a 10% Tween 20/water solution, at a dosage of 50 mg/kg body weight. A control group was treated with only the 10% Tween 20 solution. The final group was administered pioglitazone at a dose of 45 mg/kg, which is recognized as a reference drug for insulin sensitization. To evaluate glucose levels, blood samples were collected from the tails of the mice at 0, 30, 60, 90, and 120 min after the administration of the vehicle, test compound, or drug. Blood glucose concentration was measured using a commercial glucometer (Accu-Chek, Performa; Roche) and the enzymatic glucose dehydrogenase method. The percentage variation in glycemia was calculated by comparing the selected postadministration glycemia (G x ) with the initial value (G0) using the following formula: %variationofglycemia=[(Gx−G0)/G0]×100 where G0 represents the initial glycemia values and Gx indicates the glycemia values at +30, + 60, + 90, and +120 min, respectively.
# To determine the hypoglycemic effect of the compounds on nondiabetic animals, the compounds 4b, 4g, and 5g were administered intragastrically. Pioglitazone was used as a positive control. After 30 min, five mice/group (CD-1) were subjected to OGTT. The test was performed using glucose (2 g/kg) as substrate.
# [5] = system: insulin-resistant HepG2 cells; assay: Western blotting, insulin-resistant HepG2 model; assay type: cell-based, human; conditions: 24 h
# Procedure: (§1) HepG2 cells were obtained directly from ATCC (HB-8065) and cultured in DMEM with low glucose, supplemented with fetal bovine serum, 100 U/mL penicillin G, and […] streptomycin. The media was freshly prepared and sterilized by filtration. Cells were maintained with a maximum of 10 passages before being discarded. For cell counting, the cells were washed twice with phosphate-buffered saline (PBS), trypsinized, and counted using a Neubauer chamber. For the insulin-resistant model, 75,000 cells per well were seeded in 6-well plates at 37 °C in 5% CO2 and cultured for 72 h. Subsequently, insulin (0.1 μM) was added to induce insulin resistance for 24 h. After this period, inhibitors were incubated for 24 h, followed by a final 30 min insulin stimulation (0.1 μM) before protein extraction. For the normal model, 75,000 cells per well were seeded in 6-well plates at 37 °C in 5% CO2 and cultured for 96 h. After that, the cells were incubated with the inhibitors for 24 h, followed by protein extraction.
# (§2) Treated cells were washed twice with 1 mL of PBS, and proteins were extracted using 300 μL of a buffer solution containing 10% sodium deoxycholate in 10% TEAB, supplemented with a protease and phosphatase inhibitor cocktail. The extracts were heated at 80 °C for 5 min and dissociated by repeated passages through an insulin syringe. The cell extracts were centrifuged at 15,000 rpm for 15 min at 4 °C, and the supernatant was collected. Protein quantification was performed using the bicinchoninic acid assay, and aliquots were prepared for Western blotting. SDS-PAGE was conducted, and proteins were transferred onto a nitrocellulose membrane. The membrane was blocked with 10% skim milk in TBST for 1 h and incubated overnight with primary antibodies (1:400 dilution). Secondary antibodies conjugated to horseradish peroxidase were diluted 1:2,000, and the membranes were incubated for 1 h at room temperature. Blots were visualized using the ChemiDoc MP (Bio-Rad), and densitometric analysis was performed with ImageJ (U.S. National Institutes of Health). Statistical analyses were conducted using GraphPad Prism 8.0.
# resistance model in HepG2 cells . a) Western blotting representative analysis (n=3) of PTP1B, p -AKT, p-IRS1 and p-STAT3 levels
# of HepG2 cells treated with the compounds at 24 h of treatment. β-actin was employed as loading control. b) Densitometric
# analysis of western blot images employing ImageJ analysis software. Bar graphs represent the mean ± SEM of normalized values.
# The control levels were set to 1. Asterisks indicate statistical significance according to the Dunn test. p* < 0.05.
# (§3) (1 picture or pasted object on this page, not shown here)
# [6] = system: HepG2 cells; assay: Western blotting, HepG2 normal model; assay type: cell-based, human; conditions: 24 h
# Procedure: as §1, §2
# compounds at 24 h of treatment. β-actin was employed as loading control. b) Densitometric analysis of western blot images
# employing ImageJ analysis software. Bar graphs represent the mean ± SEM of normalized values. The control levels were set to
# 1. Asterisks indicate statistical significance according to the Dunn test. p* < 0.05
# as §3
structure (smiles),measurement,setting,value
"Cc1ccc(-n2ncc3c2C(C)(C)[C@@H]2CC[C@]4(C)[C@H](C(=O)C=C5[C@@H]6C[C@@](C)(C(=O)O)CC[C@]6(C)CC[C@]54C)[C@@]2(C)C3)cc1 [FC-122, reference compound]",IC50,[1],2.14 ± 0.15 µM
same,antihyperglycemic effects,[2],"superior antihyperglycemic effects compared to glibenclamide and acarbose, but did not outperform pioglitazone"
"CCc1ccc(CCOc2ccc(CC3SC(=O)NC3=O)cc2)nc1 (centres unmarked) [Pioglitazone, reference compound]",glycemia variation in ITT,[3],markedly decrease glycemia variation
same,hypoglycemic effect in OGTT,[4],the most significant reduction in the hyperglycemic peak
CN(C)C(=N)N=C(N)N [Metformin],AKT phosphorylation (p-AKT) levels,[5],notable increase
same,PTP1B levels,[5],"neither metformin, ursolic acid, nor the GA derivatives significantly reduced PTP1B levels"
same,AKT phosphorylation (p-AKT) levels,[6],notable increase
same,PTP1B levels,[6],"neither metformin, ursolic acid, nor the GA derivatives significantly reduced PTP1B levels"
